Experimental data taken from the supplement of paper PMC10307832.

How the values were obtained:
Experiment in all cases: relative viability (nuclei count vs DMSO), 5 days (fraction); higher = more cells survive
TPCA-1 + Pictilisib = compound: C1=CC(=CC=C1C2=CC(=C(S2)NC(=O)N)C(=O)N)F [TPCA-1] + CS(=O)(=O)N1CCN(Cc2cc3nc(-c4cccc5[nH]ncc45)nc(N4CCOCC4)c3s2)CC1 [Pictilisib] (partner 1 µM)
How it was run: (§1)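 Lung cancer cell lines, seeded in 1536-well plates, were treated the following day by pin tool with a single drug or with five library-drug doses (not always all listed) in √10 steps on top of a fixed anchor-drug dose. Cells were fixed and nuclei stained in one step after 5 days, and nuclei were counted. Relative viability is the nuclei count for treated wells divided by that for vehicle wells, reported as medians of duplicate plates.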

[1] = compound: C1/C(=C\C2=CC=CS2)/C(=O)/C(=C/C3=CC=CS3)/C1 + Nc1nc2[nH]cc(CCc3ccc(C(=O)N[C@@H](CCC(=O)O)C(=O)O)cc3)c2c(=O)[nH]1 [Pemetrexed] (partner 0.2 µM)
How it was run: as §1

[2] = compound: C1/C(=C\C2=CC=CS2)/C(=O)/C(=C/C3=CC=CS3)/C1 + COc1cccc2cc(-c3nc([C@H]4CC[C@H](C(=O)O)CC4)n4ncnc(N)c34)[nH]c12 [OSI-027] (partner 0.5 µM)
How it was run: as §1

[3] = compound: C1/C(=C\C2=CC=CS2)/C(=O)/C(=C/C3=CC=CS3)/C1 + O=C(CCCCCCC(=O)Nc1ccccc1)NO [Vorinostat] (partner 1 µM)
How it was run: as §1

Row | Cell Line | relative viability (TPCA-1 + Pictilisib; first compound 0.04 µM) | relative viability (TPCA-1 + Pictilisib; first compound 0.4 µM) | relative viability (TPCA-1 + Pictilisib; first compound 1.265 µM) | relative viability (TPCA-1 + Pictilisib; first compound 4 µM) | relative viability ([1]; first compound 0.2 µM) | relative viability ([1]; first compound 0.6325 µM) | relative viability ([1]; first compound 2 µM) | relative viability ([1]; first compound 6.325 µM) | relative viability ([1]; first compound 20 µM) | relative viability ([2]; first compound 0.2 µM) | relative viability ([2]; first compound 0.6325 µM) | relative viability ([2]; first compound 2 µM) | relative viability ([2]; first compound 6.325 µM) | relative viability ([2]; first compound 20 µM) | relative viability ([3]; first compound 0.2 µM) | relative viability ([3]; first compound 0.6325 µM) | relative viability ([3]; first compound 2 µM) | relative viability ([3]; first compound 6.325 µM) | relative viability ([3]; first compound 20 µM) | relative viability (TPCA-1 + Pictilisib; first compound 0.1265 µM)
1 | NCI-H1993 | 0.883 | 0.939 | 0.911 | 0.723 | 0.669 | 0.593 | 0.539 | 0.551 | 0.472 | 0.627 | 0.54 | 0.585 | 0.447 | 0.523 | 0.729 | 0.701 | 0.972 | 0.702 | 0.561 | 
2 | NCI-H2009 | 0.974 | 0.896 | 0.272 | 0.318 | 1.05 | 1.01 | 1 |  | 0.977 | 0.622 | 0.755 | 0.707 | 0.557 | 0.607 | 0.721 | 0.733 | 0.729 |  | 0.68 | 0.741
3 | NCI-H2023 | 0.264 | 0.237 | 0.176 | 0.115 | 0.239 | 0.305 | 0.263 | 0.175 | 0.218 | 0.394 | 0.469 | 0.425 | 0.304 | 0.364 | 0.722 | 0.67 | 0.727 | 0.582 | 0.539 | 0.177
4 | NCI-H2085 | 0.504 | 0.52 | 0.331 | 0.418 | 0.963 | 0.909 | 0.96 | 0.857 | 0.939 | 0.884 | 1.04 | 0.754 | 0.685 | 0.678 | 0.739 | 0.808 | 0.857 | 0.7 | 0.715 | 0.385
5 | NCI-H2087 | 1.23 | 0.823 | 0.626 | 0.203 | 0.635 | 0.7 | 0.621 | 0.529 | 0.639 | 0.716 | 0.688 | 0.769 | 0.457 | 0.42 | 0.623 | 0.656 | 0.7 | 0.616 | 0.361 | 0.785
6 | NCI-H2126 | 0.507 | 0.506 | 0.505 | 0.309 | 0.677 | 0.681 | 0.789 | 0.58 | 0.714 | 0.74 | 0.645 | 0.711 | 0.598 | 0.774 | 0.742 | 0.774 | 0.809 | 0.717 | 0.781 | 0.435
7 | NCI-H2170 | 0.373 | 0.32 | 0.32 | 0.209 | 0.283 | 0.246 | 0.259 | 0.245 | 0.256 | 0.713 | 0.728 | 0.77 | 0.416 | 0.785 | 0.898 | 0.814 | 0.787 | 0.728 | 0.766 | 0.27
8 | NCI-H2228 | 0.379 | 0.402 | 0.454 | 0.186 | 0.369 | 0.333 | 0.4 | 0.33 | 0.326 | 0.62 | 0.602 | 0.81 | 0.521 | 0.537 | 0.668 | 0.563 | 0.764 | 0.396 | 0.504 | 0.358
